# Experimental data taken from US11590185B2, “Antioxidant composition comprising Sargassum serratifolium extract or fraction thereof as active ingredient” (PUKYONG NATIONAL UNIVERSITY INDUSTRY-UNIVERSITY COOPERATION …, priority 2015, dated 2023).
# Experiments:
# [1] = system: malondialdehyde (MDA) production in 661W photoreceptor cells; test: Malondialdehyde (MDA) denatured protein in atRAL-treated 661W cells (MDA immunoblot); type: cell-based, mouse; settings: 2 hours; for expression level of MDA-denatured protein compared with group treated with atRAL only: sargachromenol 0.5 μM, sargahydroquinoic acid 0.5 μM or sargaquinoic acid 1.0 μM, with atRAL 1.8 μM
# Method: For reference, the malondialdehyde (MDA) is the result of lipid peroxidation by excessive oxidative stress in cells, and thus the amount of MDA in cells is a factor to measure the degree of oxidative stress.
# (§1) In detail, samples of each of Sargassum serratifolium ethanol extract and the compounds separated therefrom were mixed with a specific amount of atRAL (1.8 μM) and Sargassum serratifolium ethanol extract (0.5 μg/mL), sargachromenol (0.5 μM), sargahydroquinoic acid (0.5 μM), or sargaquinoic acid (1.0 μM). The photoreceptor cells were treated with mixtures thereof. Then, they were cultured for 2 hours. The cells were then washed with PBS and the intracellular proteins were recovered. The number of proteins denatured by the lipid peroxides in cells was analyzed by protein immunoassay using MDA immunoblot kit (Cell biolabs).
# as §1, with “acid (0.5 μM) or sargaquinoic” for “acid (0.5 μM), or sargaquinoic”, “treated with mixtures. Then, they” for “treated with mixtures thereof. Then, they”
# 661W photoreceptor cells [2] = test: Cell viability of 661W cells under atRAL oxidative stress (MTS); type: cell-based, mouse; settings: 24 hours; for viability at 0.5 µM: Mus musculus, 661W, 0.5 μM compound with atRAL 1.8 μM
# Method: In detail, 661W photoreceptor cells were cultured in 96-wells at a concentration of 3×10^3 cells/well and treated with atRAL having a concentration of 1.8 μM (Sigma Aldrich, St. Louis, Mo., USA) for 24 hours. Then, the medium was replaced with medium containing MTS reagent, and they were cultured for 1 hour. The absorbance thereof was measured at 490 nm, and the results were compared to determine cell viability. The cell viability thereof was measured by Celltiter^96 Aqueous One solution assay kit (Promega).
# [3] = system: reactive oxygen species in 661W photoreceptor cells; test: Reactive oxygen species in atRAL-treated 661W cells (DCFH-DA, flow cytometry); type: cell-based, mouse; settings: 30 minutes
# Method: For reference, 2′,7′-dichlorodihydrofluorescein diacetate (DCFH-DA) converts to DCF, which expresses fluorescence in response to oxidative stress in cells. Therefore, the expression of DCF in cells is used as an indicator of the degree of oxidative stress.
# (§2) In order to examine the antioxidative effect of the Sargassum serratifolium ethanol extract and the compounds separated therefrom of the present invention, atRAL (1.8 μM) and Sargassum serratifolium ethanol extract (0.5 μg/mL), sargachromenol (0.5 μM), sargahydroquinoic acid (0.5 μM), or sargaquinoic acid (1.0 μM) were added to medium mixed with DCFH-DA (20 μM), and the photoreceptor cells were treated with them and cultured for 30 minutes. Then, the cells were washed with PBS, and the cells were recovered. The cells expressing the fluorescence were measured using flow cytometry.
# as §2, with “acid (0.5 μM) or sargaquinoic” for “acid (0.5 μM), or sargaquinoic”
# 661W photoreceptor cells [4] = test: Cytotoxicity on 661W photoreceptor cells (MTS); type: cell-based, mouse; settings: 661W cells, separated compounds
# Method: (§3) 661W photoreceptor cells were cultured in 96-wells at a concentration of 3×10^3 cells/well. Then, they were treated with 1.0 μg/ml Sargassum serratifolium ethanol extract or compounds separated therefrom (sargahydroquinoic acid (SHQ), sargachromenol (SCM), and sargaquinoic acid (SQA)) at a concentration of 1.0 μM and cultured for 24 hours. Then, the medium was replaced with medium containing MTS reagent. Then, they were cultured for 1 hour. Cell viability was measured by measuring the absorbance at 490 nm and comparing the results. The cell viability thereof was analyzed by Celltiter^96 Aqueous One solution assay kit (Promega).
# as §3, with “viability” for “viability thereof”
# [5] = ABTs assay (ABTs cation scavenging); type: biochemical; settings: 6 minutes, 732 nm
# Method: The ABTs assay is similar to the DPPH assay but differs in that antioxidative activity is measured by generating free radicals through chemical reactions. ABTs are reacted with potassium persulfate to generate ABTs […] radicals, which react with H-donors such as phenolic compounds to be converted to colorless ABTs. Accordingly, the degree of antioxidative activity may be determined by measuring the amount of ABTs consumed by reacting with a sample containing a phenolic compound.
# ABTs antioxidative activity was measured by partially modified Van den Berg (1999) and others using the discoloration of ABTs radical-specific green color by antioxidants.
# (§4) Potassium persulfate was added to 7 mM ABTs solution at a final concentration of 2.4 mM. They reacted in the dark for 12 hours to 16 hours at R/T so as to produce ABTs cations. The resulting ABTs cation was diluted to be used, having an absorbance value of 0.7±0.02. […] The absorbance thereof was measured at 732 nm. The radical scavenging activity was calculated from the measured values as follows. […]
# as §4, with “mM ABTS” for “mM ABTs”, “mM. […]” for “mM. They reacted in the dark for 12 hours to 16 hours at R/T so as to produce ABTs cations.”
# [6] = Hydroxyl radical scavenging (deoxyribose test); type: biochemical; settings: 37° C. 1 hour, 532 nm
# Method: Hydroxyl radicals (—OH) are the most reactive radicals among oxygen radicals, which occur during aerobic metabolism in the human body. These radicals damage peripheral cells to create collateral living body molecules. A deoxyribose test was performed so as to measure the ability to scavenge hydroxyl radicals. Hydroxyl radicals attack deoxyribose to create small fragments. Some of which are pink when added with TBA (thiobarbituric acid) under an acidic pH environment, so the degree of damage by hydroxyl radicals is measured by absorbance at 532 nm.
# Experimental methods described in Chandini, Ganesan, and Bhaskar (Chandini, S. K., Ganesan, p., and Bhaskar, N. (2008) In vitro antioxidant activities of three selected brown seaweeds of India. Food Chemistry, 107, 707-713) were modified to be used. […] 1 ml the sample to be measured was mixed with the working solution, and 0.1 ml ascorbic acid (1 mM) is added to form Fe2+−EDTA mixture which is an […] of ferric chloride (FeCl3) and ethylenediamine tetraacetic acid (EDTA). […] The absorbance thereof was measured. […]
# Experimental methods described in Chandini, Ganesan, and Bhaskar (Chandini, S. K., Ganesan, p., and Bhaskar, N. (2008) In vitro antioxidant activities of three selected brown seaweeds of India. Food Chemistry, 107, 707-713) were modified to be used. […] The absorbance thereof was measured. […]
# [7] = DPPH radical scavenging activity; type: biochemical; settings: DPPH 200 μM, 30 minutes, 517 nm
# Method: For the measurement, 100 μl DPPH having a concentration of 200 μM and 100 μl the sample were mixed in a 96-well plate, and they reacted at room temperature for about 30 minutes. Then, the absorbance thereof was measured at 517 nm using a microplate reader. BHT was used as a positive control. The concentration was compared at the same as that of the sample.
# DPPH radical scavenging activity was calculated by the method as described below. Radical scavenging activity (%)=(ADPPH−Asample)/ADPPH×100
# For the measurement, 100 μl DPPH having a concentration of 200 μM and 100 μl the sample were mixed in a 96-well plate, and they reacted at room temperature for about 30 minutes. Then, the absorbance thereof was measured at 517 nm using a microplate reader. BHT was used as a positive control. The concentration thereof was compared to the same as that of the sample.
# DPPH radical scavenging activity was calculated by the method as described below.
# [8] = compound 0.5 μM and atRAL 1.8 μM
smiles,measurement,setting,value
CC(C)=CCC/C(=C/CC/C(C)=C/CC/C(C)=C/Cc1cc(O)cc(C)c1O)C(=O)O [sargahydroquinoic acid],expression level of MDA-denatured protein compared with group treated with atRAL only,[1],effectively reduced
same,viability at 0.5 µM,661W photoreceptor cells [2],> 90%
same,fluorescence expression level (DCF) reduced compared to group treated with atRAL only,[3]; [8],77%
same,fluorescence expression level (DCF) reduced compared to group treated with atRAL only,"[3]; compound 0.5 μM and atRAL 1.8 μM, listed as SHQ",about 76%
CC(C)=CCC/C(=C/CC/C(C)=C/CC/C(C)=C/CC1=CC(=O)C=C(C)C1=O)C(=O)O [sargaquinoic acid],expression level of MDA-denatured protein compared with group treated with atRAL only,[1],effectively reduced
same,viability at 0.5 µM,661W photoreceptor cells [2],> 90%
same,fluorescence expression level (DCF) reduced compared to group treated with atRAL only,[3]; compound 1.0 μM and atRAL 1.8 μM,73%
same,concentration up to which there was no cytotoxicity,661W photoreceptor cells [4],≤ 1000 nM
Cc1cc(C(C)(C)C)c(O)c(C(C)(C)C)c1 [BHT],"ABTs (IC50, μg/ml)",[5],7.77 ± 0.74 µg/mL
same,"OH radical (IC50, μg/ml)",[6],1.675 ± 0.21 µg/mL
same,"DPPH (IC50, μg/ml)",[7],11.18 ± 0.15 µg/mL
CC(C)=CCC/C(=C/CC/C(C)=C/CCC1(C)C=Cc2cc(O)cc(C)c2O1)C(=O)O (stereo not drawn) [sargachromenol],expression level of MDA-denatured protein compared with group treated with atRAL only,[1],effectively reduced
same,viability at 0.5 µM,661W photoreceptor cells [2],> 90%
same,fluorescence expression level (DCF) reduced compared to group treated with atRAL only,[3]; [8],76%
same,fluorescence expression level (DCF) reduced compared to group treated with atRAL only,"[3]; compound 0.5 μM and atRAL 1.8 μM, listed as SCM",~77%
"CC1=C(/C=C/C(C)=C/C=C/C(C)=C/C=O)C(C)(C)CCC1 [atRAL, all-trans-retinal, reference compound]",expression level of protein denatured by MDA compared with the control,[1]; atRAL 1.8 μM only,increased
same,cell viability reduced in the only atRAL-treated group,661W photoreceptor cells [2]; atRAL 1.8 μM alone,about 55%
same,fluorescence expression level (DCF) higher than that of the control group,[3]; atRAL 1.8 μM only,about 80%
